Results as given in patent US20230135524A1, “ARYL HYDANTOIN HETEROCYCLES AND METHODS OF USE” (The United States of America,as represented by the …, priority 2020, published 2023).
Where two headings read alike, the source gives them in different places.

How the values were obtained:
Assay type in all cases: cell-based
AR = biological target: T1, AR (Homo sapiens, UniProt P10275); assay: AR transcriptional output, ARE-luciferase assay in HEK 293T cells; conditions: for activity at 10 µM: HEK-293T, read-out: AR antagonist activity (% RLU); for antagonist or inverse agonist activity on AR transcriptional activity (in words): 10 μM, HEK 293T, FIG. 6A
T1 construct: host or cells: HEK 293T
T1 sequence (P10275 1-920): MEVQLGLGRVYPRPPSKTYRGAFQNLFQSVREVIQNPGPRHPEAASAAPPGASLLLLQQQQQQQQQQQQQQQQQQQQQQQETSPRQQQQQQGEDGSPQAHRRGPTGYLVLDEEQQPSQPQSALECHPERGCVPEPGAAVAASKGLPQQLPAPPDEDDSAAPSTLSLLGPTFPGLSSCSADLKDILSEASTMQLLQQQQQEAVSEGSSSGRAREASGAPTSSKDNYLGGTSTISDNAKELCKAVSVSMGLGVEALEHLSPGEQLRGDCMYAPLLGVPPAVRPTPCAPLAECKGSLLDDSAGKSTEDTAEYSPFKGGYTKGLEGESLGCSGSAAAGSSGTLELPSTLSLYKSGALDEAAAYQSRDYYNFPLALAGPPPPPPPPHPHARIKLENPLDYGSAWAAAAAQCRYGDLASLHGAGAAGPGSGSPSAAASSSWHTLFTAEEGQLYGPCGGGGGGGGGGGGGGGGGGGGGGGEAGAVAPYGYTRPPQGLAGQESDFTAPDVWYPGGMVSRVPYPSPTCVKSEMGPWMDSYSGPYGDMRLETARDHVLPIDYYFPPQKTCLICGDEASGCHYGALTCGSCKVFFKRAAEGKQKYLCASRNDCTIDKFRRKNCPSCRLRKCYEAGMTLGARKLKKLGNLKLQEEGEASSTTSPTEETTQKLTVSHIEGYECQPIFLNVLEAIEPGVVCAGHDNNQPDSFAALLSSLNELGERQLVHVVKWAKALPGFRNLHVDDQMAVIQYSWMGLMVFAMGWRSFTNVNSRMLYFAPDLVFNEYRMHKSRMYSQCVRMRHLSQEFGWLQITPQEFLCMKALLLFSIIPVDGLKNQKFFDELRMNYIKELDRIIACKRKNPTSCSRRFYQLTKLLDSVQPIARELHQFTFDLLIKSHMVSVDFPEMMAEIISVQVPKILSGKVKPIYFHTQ
Method: 100% is set to the activity with 200 μM testosterone, and 0% is set to the basal level (no ligand).
Cells were maintained in steroid free media, and stimulated with 200 μM testosterone, followed immediately by administration of exemplary compounds (Table 1, below). RLU is relative luciferase units, relative to DMSO control with 200 μM testosterone alone. Data represent an average of 3 independent experiments performed in triplicate wells per compounds at 10 μM.
Cells were maintained in steroid-free media, and stimulated with 200 μM testosterone, followed immediately by administration of a test compound. […] Compounds were dosed at 10 μM in FIGS. 6A and 6B.
Cells were maintained in steroid-free media, and stimulated with 200 μM testosterone, followed immediately by administration of a test compound.

LNCaP = assay: IncuCyte % confluence cell growth inhibition, LNCaP; conditions: Homo sapiens, read-out: IC50 values (μM), LNCaP
Method: (§1) Images were then analyzed to discern the % confluence of cells in each well. IC50 values were calculated from dose response curves of the % cell growth inhibition relative to DMSO control at the same time point per each cell line.

LNCAP AR = assay: IncuCyte % confluence cell growth inhibition, LNCAP AR; conditions: read-out: IC50 values (μM), LNCAP AR
Method: as §1

LAPC4 = assay: IncuCyte % confluence cell growth inhibition, LAPC4; conditions: Homo sapiens
Method: as §1

22Rv1 = assay: IncuCyte % confluence cell growth inhibition, 22Rv1; conditions: Homo sapiens
Method: as §1

LNCaP ARin vivo = assay: IncuCyte % confluence cell growth inhibition, LNCaP ARin vivo; conditions: Homo sapiens, read-out: IC50 values (μM), LNCaP ARin vivo
Method: as §1

LNCaP ARF876L = assay: IncuCyte % confluence cell growth inhibition, LNCaP ARF876L; conditions: Homo sapiens, AR-positive, AR mutation F876L, % cell growth inhibition relative to DMSO
Method: as §1

PC3 = assay: IncuCyte % confluence cell growth inhibition, PC3; conditions: Homo sapiens
Method: as §1

DU145 = assay: IncuCyte % confluence cell growth inhibition, DU145; conditions: Homo sapiens
Method: as §1

[1] = LAPC4, read-out: IC50 values (μM), LAPC4
[2] = 22Rv1, read-out: IC50 values (μM), 22Rv1
[3] = PC-3, read-out: IC50 values (μM), PC3
[4] = DU-145, read-out: IC50 values (μM), DU145
[5] = AR-positive, AR mutation T877A, % cell growth inhibition relative to DMSO
[6] = AR-positive, AR w.t., % cell growth inhibition relative to DMSO
[7] = LAPC4, AR-positive, AR w.t., % cell growth inhibition relative to DMSO, read-out: IC50 values (μM), LAPC4
[8] = 22Rv1, AR-positive, AR mutation H874Y, % cell growth inhibition relative to DMSO, read-out: IC50 values (μM), 22Rv1
[9] = PC-3, AR-negative, % cell growth inhibition relative to DMSO, read-out: IC50 values (μM), PC3
[10] = DU-145, AR-negative, % cell growth inhibition relative to DMSO, read-out: IC50 values (μM), DU145

CC1(C)C(=O)N(c2ccc(C#N)c(C(F)(F)F)c2)C(=S)N1Cc1c[nH]nn1 [Compound 18a]
activity at 10 µM (AR): 412%

CC1(C)C(=O)N(c2ccc(C#N)c(C(F)(F)F)c2)C(=O)N1Cc1ccc(-n2ccnn2)cc1 [Compound 20a, 4-(3-(4-(1H-1,2,3-triazol-1-yl)benzyl)-4,4-dimethyl-2,5-dioxoimidazolidin-1-yl)-2-(trifluoromethyl)benzonitrile]
activity at 10 µM (AR): 57%

CC1(C)C(=O)N(c2ccc(C#N)c(C(F)(F)F)c2)C(=O)N1Cc1ccc(-c2c[nH]nn2)cc1F [Compound 19a, 4-(3-(2-Fluoro-4-(1H-1,2,3-triazol-4-yl)benzyl)-4,4-dimethyl-2,5-dioxoimidazolidin-1-yl)-2-(trifluoromethyl)benzonitrile]
IC50 (LNCaP): 39 µM | IC50 (LNCAP AR): 29.4 µM | IC50 (LAPC4; [1]): 30.7 µM | IC50 (22Rv1; [2]): 36.7 µM | IC50 (LNCaP ARin vivo): 35.8 µM | IC50 (LNCaP ARF876L): 41.4 µM | IC50 (PC3; [3]): 63.4 µM | IC50 (DU145; [4]): 46.1 µM

CC(=O)N1CCN(CCOc2ccc(C3CCN(C4=Nn5c(nnc5C(F)(F)F)CC4)CC3)cc2)CC1 [AZD3514, reference compound]
IC50 (LNCaP; [5]): 76.9 µM | IC50 (LNCAP AR; [6]): 25.8 µM | IC50 (LAPC4; [7]): 30.5 µM | IC50 (22Rv1; [8]): 26.8 µM | IC50 (PC3; [9]): 122 µM | IC50 (DU145; [10]): 61.2 µM

Cn1cc(-c2ccc(CN3C(=O)N(c4ccc(C#N)c(C(F)(F)F)c4)C(=O)C3(C)C)cc2)nn1 [Compound 14b, 4-(4,4-dimethyl-3-(4-(1-methyl-1H-1,2,3-triazol-4-yl)benzyl)-2,5-dioxoimidazolidin-1-yl)-2-(trifluoromethyl)benzonitrile]
activity at 10 µM (AR): -3%

CC(O)(CS(=O)(=O)c1ccc(F)cc1)C(=O)Nc1ccc(C#N)c(C(F)(F)F)c1 (centres unmarked) [Bicalutamide, bicalutamide, reference compound]
IC50 (LNCAP AR; [6]): 80.5 µM | IC50 (LAPC4; [7]): 67 µM | IC50 (22Rv1; [8]): 53.4 µM | IC50 (PC3; [9]): 239 µM

CCn1cc(-c2ccc(CN3C(=S)N(c4ccc(C#N)c(C(F)(F)F)c4)C(=O)C3(C)C)cc2)nn1 [Compound 15c, 4-(3-(4-(1-ethyl-1H-1,2,3-triazol-4-yl)benzyl)-4,4-dimethyl-5-oxo-2-thioxoimidazolidin-1-yl)-2-(trifluoromethyl)benzonitrile]
activity at 10 µM (AR): 3%

C#Cc1ccc(CN2C(=O)N(c3ccc(C#N)c(C(F)(F)F)c3)C(=O)C2(C)C)cc1 [Compound 6, 4-[3-[(4-ethynylphenyl)methyl]-4,4-dimethyl-2,5-dioxo-1-imidazolidinyl]-2-(trifluoromethyl)-benzonitrile]
antagonist or inverse agonist activity on AR transcriptional activity (in words) (AR): relatively weak antagonists | activity at 10 µM (AR): 138%

C#Cc1ccc(N2C(=S)N(c3ccc(C#N)c(C(F)(F)F)c3)C(=O)C2(C)C)cc1 [Compound 13, 4-(3-(4-ethynylphenyl)-4,4-dimethyl-5-oxo-2-thioxoimidazolidin-1-yl)-2-(trifluoromethyl)benzonitrile]
antagonist or inverse agonist activity on AR transcriptional activity (in words) (AR): relatively weak antagonists | activity at 10 µM (AR): 59%

CC1(C)C(=O)N(c2ccc(C#N)c(C(F)(F)F)c2)C(=S)N1Cc1ccc(-c2c[nH]nn2)c(F)c1 [Compound 19c, 4-(3-(3-Fluoro-4-(1H-1,2,3-triazol-4-yl)benzyl)-4,4-dimethyl-5-oxo-2-thioxoimidazolidin-1-yl)-2-(trifluoromethyl)benzonitrile]
IC50 (LNCaP): 36.2 µM | IC50 (LNCAP AR): 28 µM | IC50 (LAPC4; [1]): 17.9 µM | IC50 (22Rv1; [2]): 25.3 µM | IC50 (LNCaP ARin vivo): 34 µM | IC50 (LNCaP ARF876L): 33.9 µM | IC50 (PC3; [3]): 59.9 µM | IC50 (DU145; [4]): 114 µM

CC1(C)C(=O)N(c2ccc(C#N)c(C(F)(F)F)c2)C(=O)N1Cc1ccc(-c2c[nH]nn2)c(F)c1 [Compound 19b, 4-(3-(3-Fluoro-4-(1H-1,2,3-triazol-4-yl)benzyl)-4,4-dimethyl-2,5-dioxoimidazolidin-1-yl)-2-(trifluoromethyl)benzonitrile]
IC50 (LNCaP): 43.1 µM | IC50 (LNCAP AR): 35.1 µM | IC50 (LAPC4; [1]): 33.1 µM | IC50 (22Rv1; [2]): 40.6 µM | IC50 (LNCaP ARin vivo): 60.1 µM | IC50 (LNCaP ARF876L): 49.4 µM | IC50 (PC3; [3]): 60.9 µM | IC50 (DU145; [4]): 65 µM

CC1(C)C(=O)N(c2ccc(C#N)c(C(F)(F)F)c2)C(=O)N1Cc1ccc(-n2cc(CO)nn2)cc1 [Compound 20b, 4-(3-(4-(4-(hydroxymethyl)-1H-1,2,3-triazol-1-yl)benzyl)-4,4-dimethyl-2,5-dioxoimidazolidin-1-yl) 2-(trifluoromethyl)benzonitrile]
activity at 10 µM (AR): 73%

CCCCn1cc(-c2ccc(CN3C(=S)N(c4ccc(C#N)c(C(F)(F)F)c4)C(=O)C3(C)C)cc2)nn1 [Compound 15e, 4-(3-(4-(1-butyl-1H-1,2,3-triazol-4-yl)benzyl)-4,4-dimethyl-5-oxo-2-thioxoimidazolidin-1-yl)-2-(trifluoromethyl)benzonitrile]
activity at 10 µM (AR): -3%

Cn1cc(-c2ccc(CN3C(=S)N(c4ccc(C#N)c(C(F)(F)F)c4)C(=O)C3(C)C)cc2)nn1 [Compound 15b, 4-(4,4-dimethyl-3-(4-(1-methyl-1H-1,2,3-triazol-4-yl)benzyl)-5-oxo-2-thioxoimidazolidin-1-yl)-2-(trifluoromethyl)benzonitrile]
activity at 10 µM (AR): -41%

C#Cc1ccc(CN2C(=S)N(c3ccc(C#N)c(C(F)(F)F)c3)C(=O)C2(C)C)cc1 [Compound 10, 4-(3-(4-ethynylbenzyl)-4,4-dimethyl-5-oxo-2-thioxoimidazolidin-1-yl)-2-(trifluoromethyl)benzonitrile]
antagonist or inverse agonist activity on AR transcriptional activity (in words) (AR): relatively weak antagonists | activity at 10 µM (AR): 95%

CNC(=O)c1ccc(N2C(=S)N(c3cnc(C#N)c(C(F)(F)F)c3)C(=O)C23CCC3)cc1F [ARN509, reference compound]
IC50 (LNCaP; [5]): 34.5 µM | IC50 (LNCAP AR; [6]): 98.9 µM | IC50 (LAPC4; [7]): 86 µM | IC50 (22Rv1; [8]): 32.5 µM | IC50 (LNCaP ARin vivo; [6]): 270 µM | IC50 (PC3; [9]): 300 µM | IC50 (DU145; [10]): 61.8 µM

CCCn1cc(-c2ccc(CN3C(=S)N(c4ccc(C#N)c(C(F)(F)F)c4)C(=O)C3(C)C)cc2)nn1 [Compound 15d, 4-(4,4-dimethyl-5-oxo-3-(4-(1-propyl-1H-1,2,3-triazol-4-yl)benzyl)-2-thioxoimidazolidin-1-yl)-2-(trifluoromethyl)benzonitrile]
activity at 10 µM (AR): 4%

CC1(C)C(=O)N(c2ccc(C#N)c(C(F)(F)F)c2)C(=O)N1Cc1ccc(-n2cc(CCO)nn2)cc1 [Compound 20c, 4-(3-(4-(4-(2-hydroxyethyl)-1H-1,2,3-triazol-1-yl)benzyl)-4,4-dimethyl-2,5-dioxoimidazolidin-1-yl)-2-(trifluoromethyl)benzonitrile]
activity at 10 µM (AR): -1%
